Experimental data reported in PubChem BioAssay AID1963963 (Molecular Pharmacology Branch, DTP, NCI, 2024).

Tested on: 958667-338-R-J2-PDC tumor spheroids viability
Experiment: Anticancer human tumor 958667-338-R-J2-PDC patient-derived colon adenocarcinoma cell line growth inhibition [PI3K]
Details: spheroids with HUVEC and MSC; for IC50: curve of first compound; for viability, T/C: stronger effect = lower value
From the text: Combinatorial screen of targeted agents with the PI3K inhibitors inavolisib, alpelisib, duvelisib, and copanlisib in multi-cell type tumor spheroids
A high-throughput screen of multi-cell type tumor spheroids was designed to identify active combinations of targeted small molecules and PI3K pathway inhibitors. Complex spheroids include a stromal component modeled by human endothelial cells (HUVEC) and fibroblasts modeled by human mesenchymal stem cells (MSCs). The concentration ranges selected for each drug and investigational agent were based upon clinically achievable concentrations if the clinical Cmax of the agent was known.
Compounds. The drugs and investigational agents: inavolisib (NSC800729), alpelisib (NSC765974), duvelisib (NSC772469), copanlisib (NSC816437), ipatasertib (NSC767898), afuresertib (NSC778305), talazoparib (NSC767125), sapanisertib (NSC764658), selumetinib (NSC741078), tovorafenib (DAY101, NSC766906), vemurafenib (NSC761431), ravoxertinib (NSC781343), sotorasib (NSC818433), MRTX1133 (NSC 836407), abemaciclib (NSC 768073), palbociclib (NSC758247), venetoclax (NSC 766270), SY5609 (NSC837396), enzalutamide (NSC755605), and darolutamide (NSC825331), were obtained from the National Cancer Institute (NCI) Developmental Therapeutics Program Chemical Repository. The FDA-approved anticancer drug set is available from the NCI Developmental Therapeutics Program. […] The stock solutions were prepared in dimethyl sulfoxide (DMSO, Sigma-Aldrich, St. Louis, MO, cat. D2650) at 800-fold the tested concentration and stored at -70 degrees C prior to their use. All drugs and investigational agents were tested over a range starting from a high concentration at or near the clinical Cmax and decreasing in half-log increments. If the clinical Cmax for an agent had not been determined, the highest concentration tested was 10 microM.
Cell Culture. All cells were maintained in an incubator at 37 degrees C and 5% CO2 with 95% humidity. The PDC lines were cultured according to standard operating procedures established by the NCI PDMR (https://pdmr.cancer.gov/sops/default.htm). All PDCs were thawed and cultured in Matrigel-coated flasks prepared with a working solution of 1X Ham's F-12 nutrient mix, without supplementation (Invitrogen, Waltham, MA, cat. 11765054), 100 U/mL penicillin-streptomycin (Invitrogen, cat. 15140122), and 2.5% Matrigel (Corning Inc., Corning, NY, cat. 354248) for the first three passages. The 354836-022-R-J1-PDC, 475296-252-R-J1-PDC, and 997726-040-R-J2-PDC lines were cultured in 6A media, which includes advanced DMEM/F-12 (Thermo Fisher Scientific, cat. 12634028), 10 mM HEPES (Thermo Fisher Scientific, cat. 15630080), 1X GlutaMAX supplement (Thermo Fisher Scientific, cat. 35050061), 0.1 mg/mL primocin (InvivoGen, San Diego, CA, cat. ant-pm-2), 10% defined fetal bovine serum, heat inactivated (HyClone Laboratories Inc., Logan, UT, cat. SH30070.03HI), 50% L-WRN conditioned media (ATCC, cat. CRL-3276), 1.25 mM N-Acetyl-L-cysteine (Sigma-Aldrich, cat. A9165), 10 mM nicotinamide (Sigma-Aldrich, cat. N0636), 1X B-27 supplement (Thermo Fisher Scientific, cat. 17504044), 1X N-2 supplement (Thermo Fisher Scientific, cat. 17502048), and 10 microM Y-27632 dihydrochloride (Tocris Bioscience, Bristol, United Kingdom, cat. 1254). The 624824-186-R-J2-PDC line was cultured in 6C/Colon 1B media, which includes all 6A media components plus 50 ng/mL human EGF recombinant protein (Thermo Fisher Scientific, cat. PHG0311). […]
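Further: spheroids exposed to compounds for seven days before readout.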

For `Cn1cnc2c(F)c(Nc3ccc(Br)cc3Cl)c(C(=O)NOCCO)cc21` + CC(Nc1ccc2c(c1)OCCn1cc(N3C(=O)OCC3C(F)F)nc1-2)C(N)=O, the IC50 (second compound 0.00316 µM) was 436 nM, the IC50 (second compound 0.01 µM) was 358 nM and the IC50 (second compound 0.0316 µM) was 174 nM. The IC50 (second compound 0.1 µM) was 87.5 nM, the IC50 (second compound 0.316 µM) was 66.9 nM and the IC50 (second compound 1 µM) was < 9.49 nM. It also gave a viability, T/C (second compound 0.00316 µM, first compound 0.00949 µM) of 86.6%, a viability, T/C (second compound 0.00316 µM, first compound 0.03 µM) of 74.4% and a viability, T/C (second compound 0.00316 µM, first compound 0.0949 µM) of 95.9%. For the same compound, the viability, T/C (second compound 0.00316 µM, first compound 0.3 µM) was 57.2%, the viability, T/C (second compound 0.00316 µM, first compound 0.949 µM) was 32% and the viability, T/C (second compound 0.00316 µM, first compound 3 µM) was 16.8%. The viability, T/C (second compound 0.01 µM, first compound 0.00949 µM) was 92.2%, the viability, T/C (second compound 0.01 µM, first compound 0.03 µM) was 101% and the viability, T/C (second compound 0.01 µM, first compound 0.0949 µM) was 73%. It also gave a viability, T/C (second compound 0.01 µM, first compound 0.3 µM) of 54.4%, a viability, T/C (second compound 0.01 µM, first compound 0.949 µM) of 30% and a viability, T/C (second compound 0.01 µM, first compound 3 µM) of 12.9%. It also gave a viability, T/C (second compound 0.0316 µM, first compound 0.00949 µM) of 88.6%, a viability, T/C (second compound 0.0316 µM, first compound 0.03 µM) of 76.3% and a viability, T/C (second compound 0.0316 µM, first compound 0.0949 µM) of 60.1%. The viability, T/C (second compound 0.0316 µM, first compound 0.3 µM) was 42.4%, the viability, T/C (second compound 0.0316 µM, first compound 0.949 µM) was 20.8% and the viability, T/C (second compound 0.0316 µM, first compound 3 µM) was 9.82%. It also gave a viability, T/C (second compound 0.1 µM, first compound 0.00949 µM) of 78.7%, a viability, T/C (second compound 0.1 µM, first compound 0.03 µM) of 57.5% and a viability, T/C (second compound 0.1 µM, first compound 0.0949 µM) of 57.5%. For the same compound, the viability, T/C (second compound 0.1 µM, first compound 0.3 µM) was 25.3%, the viability, T/C (second compound 0.1 µM, first compound 0.949 µM) was 17% and the viability, T/C (second compound 0.1 µM, first compound 3 µM) was 8.31%. It also gave a viability, T/C (second compound 0.316 µM, first compound 0.00949 µM) of 59.7%, a viability, T/C (second compound 0.316 µM, first compound 0.03 µM) of 59.5% and a viability, T/C (second compound 0.316 µM, first compound 0.0949 µM) of 46.9%. For the same compound, the viability, T/C (second compound 0.316 µM, first compound 0.3 µM) was 23.7%, the viability, T/C (second compound 0.316 µM, first compound 0.949 µM) was 15.7% and the viability, T/C (second compound 0.316 µM, first compound 3 µM) was 5.79%. For the same compound, the viability, T/C (second compound 1 µM, first compound 0.00949 µM) was 44.6%, the viability, T/C (second compound 1 µM, first compound 0.03 µM) was 43% and the viability, T/C (second compound 1 µM, first compound 0.0949 µM) was 34.8%. It also gave a viability, T/C (second compound 1 µM, first compound 0.3 µM) of 22.8%, a viability, T/C (second compound 1 µM, first compound 0.949 µM) of 11.5% and a viability, T/C (second compound 1 µM, first compound 3 µM) of 3.12%.
